Assay results reported in the supplement of paper PMC10307832.

How the values were obtained:
Assay in all cases: relative viability (nuclei count vs DMSO), 5 days (fraction); higher = more cells survive
[1] = compound: CC1=C(CC(=O)O)c2cc(F)ccc2/C1=C\c1ccc([S+](C)[O-])cc1 [Sulindac] + CS(=O)(=O)CCNCc1ccc(-c2ccc3ncnc(Nc4ccc(OCc5cccc(F)c5)c(Cl)c4)c3c2)o1 [Lapatinib] (partner 2 µM)
In short: (§1)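 The day after seeding in 1536-well plates, lung cancer cell lines were treated by pin tool with a single drug, or with a fixed anchor-drug dose together with five library-drug doses (not always all listed) in √10 steps. After 5 days, a combined fix-and-stain solution (final 0.05% Triton X-100, 1% formaldehyde, 1 ug/ml Hoechst) was added. Nuclei counted on 4× images gave relative viability as treated counts over vehicle counts, reported as the median of duplicate plates.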

[2] = compound: CN[C@@H]1C[C@H]2O[C@@](C)([C@@H]1OC)n1c3ccccc3c3c4c(c5c6ccccc6n2c5c31)C(=O)NC4 [Staurosporine] + CC(=O)Nc1cccc(-n2c(=O)n(C3CC3)c(=O)c3c(Nc4ccc(I)cc4F)n(C)c(=O)c(C)c32)c1 [Trametinib] (partner 0.02 µM)
In short: as §1

[3] = compound: CN[C@@H]1C[C@H]2O[C@@](C)([C@@H]1OC)n1c3ccccc3c3c4c(c5c6ccccc6n2c5c31)C(=O)NC4 [Staurosporine] + CS(=O)(=O)CCNCc1ccc(-c2ccc3ncnc(Nc4ccc(OCc5cccc(F)c5)c(Cl)c4)c3c2)o1 [Lapatinib] (partner 2 µM)
In short: as §1

[4] = compound: CN[C@@H]1C[C@H]2O[C@@](C)([C@@H]1OC)n1c3ccccc3c3c4c(c5c6ccccc6n2c5c31)C(=O)NC4 [Staurosporine] + Cc1nc(Nc2ncc(C(=O)Nc3c(C)cccc3Cl)s2)cc(N2CCN(CCO)CC2)n1 [Dasatinib] (partner 0.075 µM)
In short: as §1

| Cell Line | relative viability ([1]; first compound 0.08 µM) | relative viability ([1]; first compound 0.253 µM) | relative viability ([1]; first compound 0.8 µM) | relative viability ([1]; first compound 2.53 µM) | relative viability ([1]; first compound 8 µM) | relative viability ([2]; first compound 0.005 µM) | relative viability ([2]; first compound 0.05 µM) | relative viability ([2]; first compound 0.5 µM) | relative viability ([3]; first compound 0.005 µM) | relative viability ([3]; first compound 0.01581 µM) | relative viability ([3]; first compound 0.05 µM) | relative viability ([3]; first compound 0.1581 µM) | relative viability ([3]; first compound 0.5 µM) | relative viability ([4]; first compound 0.005 µM) | relative viability ([4]; first compound 0.05 µM) | relative viability ([4]; first compound 0.1581 µM) | relative viability ([4]; first compound 0.5 µM) | relative viability ([2]; first compound 0.01581 µM) | relative viability ([2]; first compound 0.1581 µM) | relative viability ([4]; first compound 0.01581 µM) |
| --- | --- | --- | --- | --- | --- | --- | --- | --- | --- | --- | --- | --- | --- | --- | --- | --- | --- | --- | --- | --- |
| NCI-H3122 | 1.05 | 0.978 | 1.03 | 0.966 | 1.03 | 0.368 | 0.648 | 0.221 | 1.01 | 0.318 | 0.988 | 0.665 | 0.685 | 0.861 | 0.756 | 0.232 | 0.0614 |  |  |  |
| HOP-62 | 1.19 | 1.24 | 0.929 | 1.15 | 1.19 | 0.359 | 0.184 | 0.102 | 1.27 | 0.293 | 0.103 | 0.0855 | 0.0849 | 0.343 | 0.109 | 0.124 | 0.0982 | 0.196 | 0.141 | 0.164 |
| NCI-H727 | 0.968 | 0.799 | 0.767 | 0.699 | 1.19 | 0.349 | 0.316 | 0.257 | 0.666 | 0.324 | 0.307 | 0.388 | 0.181 | 0.47 | 0.363 | 0.235 | 0.184 | 0.346 | 0.267 | 0.579 |
| NCI-H358 | 0.457 | 0.439 | 0.474 | 0.44 | 0.564 | 0.157 | 0.0885 | 0.0672 | 0.534 | 0.378 | 0.259 | 0.152 | 0.136 | 0.373 | 0.178 | 0.0752 | 0.0597 | 0.111 | 0.0815 | 0.072 |
| BEN | 0.785 | 0.714 | 0.695 | 0.754 | 0.995 | 1.21 | 0.827 | 0.439 | 0.656 | 0.449 | 0.381 | 0.198 | 0.207 | 0.288 | 0.356 | 0.236 | 0.167 | 1.2 | 0.729 | 0.288 |
| NCI-H460 | 1.97 | 1.38 |  | 1.12 | 1.19 | 0.0592 | 0.0206 | 0.0063 | 1.08 | 0.389 | 0.455 | 0.0071 | 0.0093 | 0.575 | 0.375 | 0.0523 | 0.009 | 0.0305 | 0.0114 | 0.27 |
| SK-MES-1 | 0.517 | 0.497 | 0.362 | 0.372 | 0.486 | 0.333 | 0.265 | 0.139 | 0.444 | 0.31 | 0.311 | 0.205 | 0.185 | 0.21 | 0.154 | 0.126 | 0.106 | 0.281 | 0.211 | 0.22 |
| NCI-H1792 | 1.13 | 0.982 |  | 0.947 | 1.12 | 0.374 | 0.164 | 0.0466 | 0.992 | 0.814 | 0.503 | 0.199 | 0.185 | 0.897 | 0.451 | 0.359 | 0.289 | 0.263 | 0.0813 | 0.639 |
| NCI-H2085 | 0.746 | 0.693 | 0.668 | 0.69 | 0.777 | 0.313 | 0.293 | 0.197 | 0.65 | 0.391 | 0.463 | 0.351 | 0.243 | 0.244 | 0.271 | 0.235 | 0.242 | 0.208 | 0.215 | 0.257 |
| LC-2-ad | 1.1 | 1.04 | 0.893 | 1.02 | 1.02 | 0.945 | 0.559 | 0.122 | 0.957 | 0.127 | 0.47 | 0.0776 | 0.0569 | 0.488 | 0.193 | 0.194 | 0.141 | 0.732 | 0.165 | 0.188 |
| 201T | 1.05 | 0.974 | 1.04 | 0.997 | 1.07 | 0.769 | 0.703 | 0.485 | 1.04 | 0.957 | 0.948 | 0.895 | 0.637 | 0.55 | 0.544 | 0.402 | 0.279 |  | 0.58 |  |
| NCI-H2023 | 0.708 | 0.733 | 0.741 | 0.774 | 1.09 | 0.257 | 0.145 | 0.0607 | 0.509 | 0.11 | 0.18 | 0.0948 | 0.0518 | 0.365 | 0.126 | 0.0785 | 0.0455 | 0.17 | 0.0801 | 0.198 |
| NCI-H1395 | 1.2 | 1.08 | 1.01 | 0.8 | 1.15 | 0.98 | 0.476 | 0.261 | 0.833 | 0.551 | 0.487 | 0.356 | 0.376 | 0.377 | 0.383 | 0.299 | 0.247 | 0.77 | 0.305 | 0.306 |
